Measurements: US20050148605A1, “Amide derivatives as ABL modulators” (Ambit Biosciences Corporation, priority 2003, published 2005)

Columns and labels:
ABL1(E274K) = molecular target: T1, ABL1(E274K) (Homo sapiens, UniProt P00519, E255K); assay: Binding constant (Kd) measurement, phage-displayed kinase competition binding assay: ABL1(E274K); conditions: competition with immobilized ATP site ligand
T1 construct: made in house; host or cells: T7 bacteriophage display
Description: (§1) Binding Constant (Kd) Measurements for Small-Molecule-Kinase Interactions
(§2) The term “ND” represents non-determined values.

ABL1(DKIN) = molecular target: T2, ABL1(DKIN) (Homo sapiens, UniProt P00519); assay: Binding constant (Kd) measurement, phage-displayed kinase competition binding assay: ABL1(DKIN); conditions: competition with immobilized ATP site ligand
T2 construct: column label 'AB L1(DKIN)'; fused on or other part: Fused to a T7 bacteriophage particle (phage display)
T2 sequence (P00519 242-493 limits assumed): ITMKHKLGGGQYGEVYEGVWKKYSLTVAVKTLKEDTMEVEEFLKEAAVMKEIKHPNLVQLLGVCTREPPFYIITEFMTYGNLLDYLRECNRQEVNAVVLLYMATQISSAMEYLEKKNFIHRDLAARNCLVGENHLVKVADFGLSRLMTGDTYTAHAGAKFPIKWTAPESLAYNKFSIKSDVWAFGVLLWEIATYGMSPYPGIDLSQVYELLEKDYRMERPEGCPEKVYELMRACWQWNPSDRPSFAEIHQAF
Description: as §1, §2

T1 sequence (P00519 1-1149 isoform P00519-2 E274K): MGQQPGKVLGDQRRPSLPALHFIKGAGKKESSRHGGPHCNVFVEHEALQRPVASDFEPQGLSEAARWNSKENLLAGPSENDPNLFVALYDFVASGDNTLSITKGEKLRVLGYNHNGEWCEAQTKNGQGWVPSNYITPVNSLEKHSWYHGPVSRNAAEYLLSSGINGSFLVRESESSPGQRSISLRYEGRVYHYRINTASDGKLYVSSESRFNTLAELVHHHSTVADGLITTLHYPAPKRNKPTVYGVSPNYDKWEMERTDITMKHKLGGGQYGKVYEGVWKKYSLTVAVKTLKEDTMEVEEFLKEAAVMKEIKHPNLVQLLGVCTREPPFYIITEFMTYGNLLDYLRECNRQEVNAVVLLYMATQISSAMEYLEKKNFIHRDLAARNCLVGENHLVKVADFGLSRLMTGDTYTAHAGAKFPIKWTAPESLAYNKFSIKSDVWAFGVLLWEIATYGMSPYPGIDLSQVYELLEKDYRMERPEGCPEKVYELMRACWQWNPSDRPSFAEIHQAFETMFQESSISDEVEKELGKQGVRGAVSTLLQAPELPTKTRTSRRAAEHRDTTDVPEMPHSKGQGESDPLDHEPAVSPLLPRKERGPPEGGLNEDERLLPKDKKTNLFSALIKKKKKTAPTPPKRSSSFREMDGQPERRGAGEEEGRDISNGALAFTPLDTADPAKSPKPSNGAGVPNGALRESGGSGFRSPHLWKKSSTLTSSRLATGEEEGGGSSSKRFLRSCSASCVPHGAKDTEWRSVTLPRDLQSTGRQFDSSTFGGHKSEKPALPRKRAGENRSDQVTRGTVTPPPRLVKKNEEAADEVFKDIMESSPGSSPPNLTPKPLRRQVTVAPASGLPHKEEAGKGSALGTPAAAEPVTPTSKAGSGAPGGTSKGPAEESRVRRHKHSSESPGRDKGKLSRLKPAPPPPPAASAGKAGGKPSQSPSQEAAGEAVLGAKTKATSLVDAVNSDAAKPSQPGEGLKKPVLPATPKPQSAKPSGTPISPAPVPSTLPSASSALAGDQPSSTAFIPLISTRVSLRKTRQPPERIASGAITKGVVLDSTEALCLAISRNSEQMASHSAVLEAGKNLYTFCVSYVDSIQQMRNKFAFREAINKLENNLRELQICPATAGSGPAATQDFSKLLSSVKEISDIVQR

| Kd (ABL1(E274K)) [µM] | Kd (ABL1(DKIN)) [µM] | SMILES |
| --- | --- | --- |
| > 10 | – | O=C(Cc1ccc(OCc2ccccc2)cc1)Nc1nc2cc(Cl)ccc2o1 [Compound B15] |
| – | > 10 | O=C(Cc1ccc(F)cc1)Nc1cc(C2CC2)nn1-c1ccccc1 [Compound E7] |
